Measured values taken from publication PMC13366236 (Acta Pharmaceutica Sinica. B, 2025).
Where “and” joins values, the source holds several entries; their conditions need not be identical. Identical values can stand only once.

Assays:
PI3Kα = PI3Kα (Homo sapiens, UniProt P42336); test: biochemical
[1] = tested on: PI3K/Akt/mTOR signaling pathway; test: Western blot of PI3K/Akt/mTOR signaling pathway in MDA-MB-231 cells; type: cell-based, human; conditions: MDA-MB-231, 0.5, 1, 2 μmol/L, 24 h
CYP 3A4 = CYP 3A4 (Homo sapiens, UniProt P08684); test: CYP enzyme inhibition; conditions: CYP 3A4 IC50
PI3Kδ = PI3Kδ (Homo sapiens, UniProt O00329); test: biochemical
MDA-MB-436 cells = test: Cell viability CCK-8 assay; type: cell-based; conditions: Homo sapiens, MDA-MB-436, 48 h, read-out: Antiproliferative IC50 ± SD
MDA-MB-231 cells [2] = test: Transwell invasion assay; type: cell-based, human; conditions: MDA-MB-231, concentration-dependent
MDA-MB-231 xenograft = MDA-MB-231 xenograft tumor model; type: in vivo, female BALB/c nude mice; conditions: i.v., Q3D × 6, Day 15; for TGI: listed as MT-44; for Tumor size: mean ± SEM
mTOR [3] = molecular target: T1, mTOR (Homo sapiens, UniProt P42345); test: mTOR kinase inhibition, Lance Ultra assay; type: biochemical; conditions: mTOR, IC50, mean ± SD of triplicate measurements
[4] = tested on: panel of 200 human kinases; test: Kinase-specificity profiling; type: binding; conditions: 1.0 μmol/L
MDA-MB-468 cells = test: Cell viability CCK-8 assay; type: cell-based; conditions: Homo sapiens
CYP 2C19 = CYP 2C19 (Homo sapiens, UniProt P33261); test: CYP enzyme inhibition; conditions: CYP 2C19 IC50
MDA-MB-231 cells [5] = test: Autophagy induction, Western blot and LC3B immunofluorescence; type: cell-based, human; conditions: MDA-MB-231, 0.5, 1, 2 μmol/L, 24 h
[6] = Pharmacokinetic study in SD rats; type: in vivo
CYP 2D6 = CYP 2D6 (Homo sapiens, UniProt P10635); test: CYP enzyme inhibition; conditions: CYP 2D6 IC50
CYP 1A2 = CYP 1A2 (Homo sapiens, UniProt P05177); test: CYP enzyme inhibition
MDA-MB-231 cells [7] = test: Cell viability CCK-8 assay; type: cell-based, human
MDA-MB-231 cells [8] = test: Wound healing; type: cell-based, human; conditions: MDA-MB-231, 0.25, 0.5, 1.0 μmol/L, concentration-dependent
MDA-MB-231 cells [9] = test: Apoptosis, Annexin V-AF647/7AAD flow cytometry; type: cell-based, human; conditions: 24 h
PI3KC2g(h) = PI3KC2g(h) (Homo sapiens, UniProt O75747); test: Kinase profiling; type: binding; conditions: 1.0 μmol/L
PI3Kβ = PI3Kβ (Homo sapiens, UniProt P42338); test: biochemical
mTOR [10] = molecular target: T1, mTOR; test: Cellular thermal shift assay; type: cell-based; conditions: MDA-MB-231 cells, 5 μmol/L, 8 h
MDA-MB-231 cells [11] = test: Colony formation assay; type: cell-based, human; conditions: MDA-MB-231, 0.05, 0.1, 0.5 μmol/L
MCF-7 cells = test: Cell viability CCK-8 assay; type: cell-based; conditions: Homo sapiens, MCF7, 48 h, read-out: Antiproliferative IC50 ± SD
HCT-116 cells = test: Cell viability CCK-8 assay; type: cell-based; conditions: Homo sapiens, HCT-116, 48 h, read-out: Antiproliferative IC50 ± SD
[12] = tested on: cGAS/STING signaling pathway; test: Western blot of cGAS/STING signaling pathway in MDA-MB-231 cells; type: cell-based, human; conditions: MDA-MB-231, 0.5‒2.0 μmol/L, 24 h
CYP 2C9 = CYP 2C9 (Homo sapiens, UniProt P11712); test: CYP enzyme inhibition; conditions: CYP 2C9 IC50
PI3Kγ = PI3Kγ (Homo sapiens, UniProt P48736); test: biochemical
[13] = Sprague-Dawley, rat, plasma, iv, 5 mg/kg
[14] = Sprague-Dawley, rat, plasma, po, 20 mg/kg

CYP 1A2, sequence (P05177 whole entry): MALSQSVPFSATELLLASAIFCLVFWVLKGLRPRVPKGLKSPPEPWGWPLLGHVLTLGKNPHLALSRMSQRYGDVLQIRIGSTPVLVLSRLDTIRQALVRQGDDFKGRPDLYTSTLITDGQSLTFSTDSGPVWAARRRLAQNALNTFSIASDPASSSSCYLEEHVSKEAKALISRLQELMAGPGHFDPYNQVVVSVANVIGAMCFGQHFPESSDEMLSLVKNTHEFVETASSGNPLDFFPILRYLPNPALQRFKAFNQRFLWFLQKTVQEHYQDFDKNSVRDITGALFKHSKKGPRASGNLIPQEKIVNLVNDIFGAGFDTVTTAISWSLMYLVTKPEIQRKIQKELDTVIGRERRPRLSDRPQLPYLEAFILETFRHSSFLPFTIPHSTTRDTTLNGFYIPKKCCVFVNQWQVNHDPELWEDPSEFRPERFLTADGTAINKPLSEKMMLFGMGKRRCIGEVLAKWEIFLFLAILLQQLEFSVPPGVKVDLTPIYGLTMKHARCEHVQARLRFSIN
CYP 2C9, sequence (P11712 whole entry): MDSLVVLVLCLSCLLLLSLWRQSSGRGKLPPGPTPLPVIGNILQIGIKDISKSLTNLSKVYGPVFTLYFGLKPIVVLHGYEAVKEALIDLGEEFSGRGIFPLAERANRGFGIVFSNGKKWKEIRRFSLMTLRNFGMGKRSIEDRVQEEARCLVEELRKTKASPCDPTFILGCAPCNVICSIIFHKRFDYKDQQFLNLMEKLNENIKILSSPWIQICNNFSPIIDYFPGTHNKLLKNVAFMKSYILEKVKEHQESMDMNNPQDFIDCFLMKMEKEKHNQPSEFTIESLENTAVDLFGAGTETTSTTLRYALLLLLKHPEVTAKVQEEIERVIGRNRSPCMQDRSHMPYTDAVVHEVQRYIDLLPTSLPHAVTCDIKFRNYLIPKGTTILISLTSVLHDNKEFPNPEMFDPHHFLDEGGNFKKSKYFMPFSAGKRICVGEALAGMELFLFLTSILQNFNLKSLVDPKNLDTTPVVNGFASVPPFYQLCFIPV
PI3KC2g(h), sequence (O75747 whole entry): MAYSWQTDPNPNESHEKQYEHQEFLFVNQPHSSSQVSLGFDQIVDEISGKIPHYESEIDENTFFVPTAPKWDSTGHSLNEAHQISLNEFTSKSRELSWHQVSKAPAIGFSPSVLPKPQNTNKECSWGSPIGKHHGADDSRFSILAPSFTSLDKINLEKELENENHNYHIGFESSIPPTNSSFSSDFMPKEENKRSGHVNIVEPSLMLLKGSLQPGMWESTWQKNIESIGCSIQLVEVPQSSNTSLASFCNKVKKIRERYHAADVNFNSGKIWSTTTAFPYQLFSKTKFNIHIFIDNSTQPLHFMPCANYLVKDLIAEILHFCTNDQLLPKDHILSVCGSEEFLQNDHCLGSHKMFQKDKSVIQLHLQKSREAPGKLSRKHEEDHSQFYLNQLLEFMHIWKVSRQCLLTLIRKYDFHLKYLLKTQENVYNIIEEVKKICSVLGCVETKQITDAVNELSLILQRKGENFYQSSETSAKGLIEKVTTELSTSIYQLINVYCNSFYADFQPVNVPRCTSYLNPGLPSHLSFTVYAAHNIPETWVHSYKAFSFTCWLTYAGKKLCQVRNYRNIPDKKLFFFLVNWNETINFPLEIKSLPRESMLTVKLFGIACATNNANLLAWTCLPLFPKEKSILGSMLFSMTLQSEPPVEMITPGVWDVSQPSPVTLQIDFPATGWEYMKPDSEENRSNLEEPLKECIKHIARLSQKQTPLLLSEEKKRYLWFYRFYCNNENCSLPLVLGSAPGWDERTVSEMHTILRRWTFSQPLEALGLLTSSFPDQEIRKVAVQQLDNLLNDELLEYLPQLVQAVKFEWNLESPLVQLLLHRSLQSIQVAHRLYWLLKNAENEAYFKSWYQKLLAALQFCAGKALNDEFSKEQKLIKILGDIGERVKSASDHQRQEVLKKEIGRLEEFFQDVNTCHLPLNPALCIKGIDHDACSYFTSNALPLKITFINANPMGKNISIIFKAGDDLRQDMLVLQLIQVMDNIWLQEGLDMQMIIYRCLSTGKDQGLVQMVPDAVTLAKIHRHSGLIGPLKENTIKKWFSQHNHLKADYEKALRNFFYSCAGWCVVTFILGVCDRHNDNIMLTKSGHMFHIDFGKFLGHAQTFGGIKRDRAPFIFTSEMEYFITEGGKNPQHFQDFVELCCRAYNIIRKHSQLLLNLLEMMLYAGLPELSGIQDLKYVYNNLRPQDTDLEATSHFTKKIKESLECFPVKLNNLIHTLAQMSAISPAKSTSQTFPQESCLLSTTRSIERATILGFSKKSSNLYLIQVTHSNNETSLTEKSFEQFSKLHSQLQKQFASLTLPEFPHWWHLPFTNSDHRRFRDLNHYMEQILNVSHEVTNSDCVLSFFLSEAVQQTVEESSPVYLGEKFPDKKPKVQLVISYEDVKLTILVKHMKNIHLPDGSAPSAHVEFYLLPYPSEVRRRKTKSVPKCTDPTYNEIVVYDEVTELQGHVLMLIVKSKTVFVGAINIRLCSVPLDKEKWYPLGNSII
PI3Kβ, sequence (P42338 whole entry): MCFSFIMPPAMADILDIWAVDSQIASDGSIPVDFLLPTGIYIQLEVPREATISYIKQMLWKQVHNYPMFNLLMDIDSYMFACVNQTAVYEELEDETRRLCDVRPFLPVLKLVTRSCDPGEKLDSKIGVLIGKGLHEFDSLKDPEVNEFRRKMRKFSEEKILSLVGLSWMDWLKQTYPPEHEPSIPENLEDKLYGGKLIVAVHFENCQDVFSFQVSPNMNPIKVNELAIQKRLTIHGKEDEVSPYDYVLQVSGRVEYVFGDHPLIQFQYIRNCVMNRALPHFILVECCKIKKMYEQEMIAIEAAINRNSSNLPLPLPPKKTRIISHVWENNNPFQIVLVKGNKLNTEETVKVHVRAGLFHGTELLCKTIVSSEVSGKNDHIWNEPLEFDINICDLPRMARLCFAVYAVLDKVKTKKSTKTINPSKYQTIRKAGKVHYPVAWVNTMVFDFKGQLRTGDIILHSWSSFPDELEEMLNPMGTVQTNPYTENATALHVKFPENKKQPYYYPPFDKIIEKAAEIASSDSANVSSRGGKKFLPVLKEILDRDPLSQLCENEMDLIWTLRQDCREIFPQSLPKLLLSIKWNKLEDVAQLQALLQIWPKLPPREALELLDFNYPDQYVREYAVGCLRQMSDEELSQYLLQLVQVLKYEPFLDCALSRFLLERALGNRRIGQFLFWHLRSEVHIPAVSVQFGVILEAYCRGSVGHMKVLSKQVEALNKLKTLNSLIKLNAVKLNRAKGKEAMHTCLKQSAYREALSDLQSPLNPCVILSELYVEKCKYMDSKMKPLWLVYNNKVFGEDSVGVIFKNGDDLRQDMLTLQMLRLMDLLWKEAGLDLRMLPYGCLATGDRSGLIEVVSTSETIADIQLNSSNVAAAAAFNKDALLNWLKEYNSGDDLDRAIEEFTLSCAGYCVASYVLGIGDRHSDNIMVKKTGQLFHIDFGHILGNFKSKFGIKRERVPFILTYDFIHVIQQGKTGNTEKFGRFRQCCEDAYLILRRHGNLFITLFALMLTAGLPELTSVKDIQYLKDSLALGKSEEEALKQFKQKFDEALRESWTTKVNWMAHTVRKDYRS
PI3Kβ, sequence (P27986 whole entry partner): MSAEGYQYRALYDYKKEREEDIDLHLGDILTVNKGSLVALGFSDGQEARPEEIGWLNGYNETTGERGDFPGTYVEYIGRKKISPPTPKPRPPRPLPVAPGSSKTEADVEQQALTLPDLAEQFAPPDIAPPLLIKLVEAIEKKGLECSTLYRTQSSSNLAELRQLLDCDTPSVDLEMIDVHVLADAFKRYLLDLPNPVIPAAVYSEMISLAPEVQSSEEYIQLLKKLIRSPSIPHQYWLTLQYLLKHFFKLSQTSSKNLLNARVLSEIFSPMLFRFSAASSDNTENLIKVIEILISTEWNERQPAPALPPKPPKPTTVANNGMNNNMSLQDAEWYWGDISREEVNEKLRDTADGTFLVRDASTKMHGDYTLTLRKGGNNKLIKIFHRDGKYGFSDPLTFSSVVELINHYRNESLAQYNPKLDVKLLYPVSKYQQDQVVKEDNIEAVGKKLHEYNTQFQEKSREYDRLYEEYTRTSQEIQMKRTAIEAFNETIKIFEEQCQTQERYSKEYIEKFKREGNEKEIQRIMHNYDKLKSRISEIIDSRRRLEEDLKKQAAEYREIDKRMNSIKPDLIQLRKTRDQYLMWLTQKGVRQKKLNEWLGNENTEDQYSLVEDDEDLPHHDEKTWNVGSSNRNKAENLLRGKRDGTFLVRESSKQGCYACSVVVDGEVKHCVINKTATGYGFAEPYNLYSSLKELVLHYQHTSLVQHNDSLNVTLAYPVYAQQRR
CYP 2C19, sequence (P33261 whole entry): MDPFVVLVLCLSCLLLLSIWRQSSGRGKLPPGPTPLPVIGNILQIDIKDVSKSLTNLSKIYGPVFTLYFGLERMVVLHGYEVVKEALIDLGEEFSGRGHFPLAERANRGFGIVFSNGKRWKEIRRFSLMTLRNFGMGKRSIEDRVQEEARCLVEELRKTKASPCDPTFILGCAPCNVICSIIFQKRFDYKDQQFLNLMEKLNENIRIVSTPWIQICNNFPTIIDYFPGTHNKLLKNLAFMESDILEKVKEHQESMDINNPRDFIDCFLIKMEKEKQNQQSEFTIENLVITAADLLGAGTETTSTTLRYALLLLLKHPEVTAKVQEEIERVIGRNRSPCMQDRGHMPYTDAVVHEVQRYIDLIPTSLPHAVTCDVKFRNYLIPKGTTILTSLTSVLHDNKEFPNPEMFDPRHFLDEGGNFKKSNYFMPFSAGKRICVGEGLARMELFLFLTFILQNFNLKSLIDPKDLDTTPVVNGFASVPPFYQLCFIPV

## COc1ccc2oc(-c3ccc4nc(N)oc4c3)c/c(=N\c3ccccc3NC(=O)CCN)c2c1 [Compound 12j, (E)-3-amino-N-(2-((2-(2-aminobenzo[d]oxazol-6-yl)-6-methoxy-4H-chromen-4-ylidene)amino)phenyl)propanamide]
PI3Kα
  IC50: > 10000 nM
[1]
  expression of p-P70S6K(Thr389), p-Akt(Ser473), p-4EBP1(Thr37/46): significantly downregulated in a concentration-dependent manner
CYP 3A4
  IC50: > 50000 nM
PI3Kδ
  IC50: > 10000 nM
MDA-MB-436 cells
  IC50: 148 ± 1.7 nM
MDA-MB-231 cells [2]
  invasion: significantly inhibit the invasion
MDA-MB-231 xenograft; 10 mg/kg
  T/C: 61.36%
  TGI: 38.64% and 38.64 ^d %
  Tumor size: 210.95 ± 33.18 mm^3
MDA-MB-231 xenograft; 20 mg/kg
  T/C: 27.27%
  TGI: 72.73% and 72.73 ^e %
  Tumor size: 115.97 ± 20.63 mm^3
mTOR [3]
  IC50: 49.4 ± 17.1 nM
[4]
  binding activity to the panel of kinases: no obvious binding activity
MDA-MB-468 cells; MDA-MB-468, read-out: Antiproliferative IC50
  IC50: 148 nM
MDA-MB-468 cells; MDA-MB-468, read-out: Inhibition rate @ 1.0 μmol/L
  inhibition at 1 µM: 74%
CYP 2C19
  IC50: > 50000 nM
MDA-MB-231 cells [5]
  autophagy induction: significantly enhanced autophagy induction
[6]; SD rats, i.g. 20 mg/kg
  Cl: 0.75 ± 0.07 mL/min/kg
  Vss: 15.04 ± 4.24 L/kg
[6]; [13]
  AUC(0-inf): 29900 ng·h/mL
  AUC(0-t): 28800 ng·h/mL
  Cmax: 29200 ng/mL
  MRT last: 2.93 ± 0.16 h
  Tmax: 0.05 h
  Vd: 4.43 ± 0.93 L/kg
  clearance: 2.83 mL/min/kg
  half-life: 14.1 ± 3.35 h
[6]; Sprague-Dawley, rat, plasma, oral, 20 mg/kg
  bioavailability: 4.75%
[6]; [14]
  AUC(0-inf): 5680 ± 501 ng·h/mL
  AUC(0-t): 5300 ± 514 ng·h/mL
  Cmax: 1150 ± 174 ng/mL
  MRT last: 5.44 ± 0.2 h
  Tmax: 1.4 ± 0.55 h
  half-life: 14 ± 4.11 h
CYP 2D6
  IC50: 19900 nM
CYP 1A2
  IC50: > 50000 nM
MDA-MB-231 cells [7]; Homo sapiens, MDA-MB-231, 48 h, read-out: Antiproliferative IC50 ± SD
  IC50: 66.5 ± 1.5 nM
MDA-MB-231 cells [7]; MDA-MB-231
  fold more potent antiproliferative effect than Doxorubicin: 1.1 fold
  fold more potent antiproliferative effect than Everolimus: 34.4 fold
MDA-MB-231 cells [8]
  anti-migration effect: significantly inhibit the migration
MDA-MB-231 cells [9]; MDA-MB-231, 0.5 μmol/L
  percentage of total apoptotic cells: 4.73%
MDA-MB-231 cells [9]; MDA-MB-231, 1 μmol/L
  percentage of total apoptotic cells: 9.43%
MDA-MB-231 cells [9]; MDA-MB-231, 2 μmol/L
  percentage of total apoptotic cells: 22.23%
PI3KC2g(h)
  binding to PI3KC2γ: weak binding
PI3Kβ
  IC50: > 10000 nM
mTOR [10]
  target engagement of mTOR in CETSA: directly interacts with mTOR protein
MDA-MB-231 cells [11]
  colony formation ability: significantly inhibited
MCF-7 cells
  IC50: 328 ± 5.4 nM
HCT-116 cells
  IC50: 555 ± 315 nM
[12]
  phosphorylation of STING(Ser366), TBK(Ser172), IRF3(Ser366): concentration-dependent increase
CYP 2C9
  IC50: > 50000 nM
PI3Kγ
  IC50: > 10000 nM
